Patent publication US7507753B2, “Biaryl compound and use thereof” (Takeda Chemical Industries Ltd., priority 2001, dated 2009)
Where a name gives a salt, the structure may show the parent alone.

Target: T1, Human MC4R (Homo sapiens, UniProt P32245)
T1 construct: expressed in transfected cells; plasmid pMC4R in vector pMSR alpha neo
Assay: [125I]-[Nle4,D-Phe7]-α-MSH binding inhibition in CHO/MC4R cells
Settings: test compound 10 μM, 100 pM [125I]-[Nle4,D-Phe7]-α-MSH, room temperature, 60 minutes
Procedure: (1) Cloning of Human MC4R
Cloning of MC4R gene was conducted from human brain cDNA by PCR method. Using 0.5 ng of brain cDNA (Clontech, Quick-lone cDNA) as a genetic template, primer sets prepared by referring to MC4R gene base sequence described in Birkenbach M. et al. (J. Virol, 67(4),2209-2220(1993)), i.e., primer-1: 5′-[…]-3′ [Sequence No.:1] and primer-2: 5′-[…]-3′ [Sequence No.:2] were added in amounts of 50 pmol, respectively, and, the PCR reaction was carried out using TaKaRa LA Taq(Takara Shuzo)in Gene Amp PCR System 9600 (Applied Biosystems)(Reaction conditions: 35 cycles of 95° C. for 1 minute, 62° C. for 1 minute, and 72° C. for 3 minutes).
(2) Preparation of Expression Plasmid for Human MC4R
After the PCR fragments obtained above were digested by restriction enzymes Eco RI (Takara Shuzo) and Sal I (Takara Shuzo), DNA fragments were collected by agarose gel electrophoresis. The DNA fragments and an expression plasmid for animal cells pMSR a neo (Japanese Unexamined Patent Application Publication No. 2000-281685, WO 00/44756), which was previously digested by Eco RI and Sal I, were mixed and ligated using a DNA Ligation Kit Ver. 2 (Takara Shuzo). Transformation of E. coli JM109 competent cells gave plasmid pMC4R.
(3) Introduction of the Expression Plasmid for Human MC4R into CHO-K1 Cells and Expression thereof
CHO-KI cells grown in 150 cm^2 of a cell culture flask (Corning Costar) using Ham F12 medium (GIBCO BRL) containing 10% fetal bovine serum (GIBCO BRL) were collected by using 0.5 g/L trypsin-0.2 g/L EDTA (GIBCO BRL). The cells were washed with PBS (GIBCO BRL), centrifuged (1000 rpm, 5 minutes), and were suspended in PBS. Then, the DNA was introduced into the cells using Gene Pulser (BioRad) according to the following conditions. Namely, 1×10^7 cells and 15 μg of human MC4R expression plasmid pMC4R were placed in a 0.4-cm gap cuvette, and the mixture was electropolated under 0.25 kV of electric voltage, and 960 μF of capacitance. Cells were then transferred to Ham F12 medium containing 10% fetal bovine serum. After incubation for 24 hours, cells were collected, centrifuged, and suspended in Ham F12 medium containing 10% fetal bovine serum and Geneticin (GIBCO BRL) at a concentration of 500 μg/ml. Cells were diluted to a concentration of 10^4 cells/ml, and inoculated in 96-well plate (Corning Costar) to obtain Geneticin-resistant strains.
The Geneticin-resistant strains were grown in 96-well plates (OPAQUE PLATE 3917, Costar), and MC4R-expressing cells were selected from the resistant strains. Namely, in an assay buffer (20 mM HEPES (Dojindo Laboratories, Inc.), 0.5% BSA, 0.05% NaN3) containing 200 pM [^125I]-[Nle4,D-Phe7]-α-Melanocyte Stimulating Hormone (Daiichi Pure Chemicals Co., Ltd.), the cells were subjected to binding reaction at room temperature for 60 minutes. After the assay buffer was removed by inspiration, the cells were washed with ice-cooled PBS, and then stirred after adding 100 μl/well of MicroScint-20 (Packard Industry Company, Inc.) to each well. Subsequently, the cells were counted for radioactivity using a Top Count (Packard) to select CHO/MC4R strains, the cells to which [^125I]-[Nle4,D-Phe7]-α-Melanocyte Stimulating Hormone bound specifically. […]
The CHO/MC4R strains were inoculated in 96 well microplate at a concentration of 1×10^4 cells/well, and grown for 72 hours. […] Then, 100 μl MicroScint 20 (Packerd) was added to each well, and the radioactivity of each well was measured by Top Count (Packard). […]

T1 sequence (P32245 whole entry): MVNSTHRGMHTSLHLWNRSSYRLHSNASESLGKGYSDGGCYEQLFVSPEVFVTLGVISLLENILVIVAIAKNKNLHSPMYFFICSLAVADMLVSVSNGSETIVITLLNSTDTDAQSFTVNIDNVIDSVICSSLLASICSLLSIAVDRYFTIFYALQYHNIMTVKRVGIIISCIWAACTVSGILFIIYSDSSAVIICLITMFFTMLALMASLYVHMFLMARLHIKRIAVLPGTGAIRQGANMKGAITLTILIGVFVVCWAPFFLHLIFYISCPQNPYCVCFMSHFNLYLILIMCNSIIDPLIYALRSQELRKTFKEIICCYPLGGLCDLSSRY

CC(c1cccc(-c2ccccc2C(=O)NCCN)c1)N(C(=O)Cc1cccc(Cl)c1)C1CCN(Cc2ccccc2)CC1 (centres unmarked) [Example 4, N-(2-aminoethyl)-3′-[1-(N-(1-benzylpiperidin-4-yl)-N-(3-chlorophenylacetyl)amino}ethyl][1,1′-biphenyl]-2-carboxamide dihydrochloride]
Binding Inhibitory Ratio: 92%

CC(c1cccc(-c2ccccc2C(=O)NCCN)c1)N(C(=O)Cc1ccc(Cl)c(Cl)c1)C1CCN(Cc2ccccc2)CC1 (centres unmarked) [Example 9, N-(2-aminoethyl)-3′-[1-{N-(1-benzylpiperidin-4-yl)-N-(3,4-dichlorophenylacetyl)amino}ethyl][1,1′-biphenyl]-2-carboxamide dihydrochloride]
Binding Inhibitory Ratio: 100%

CC(c1cccc(-c2ccccc2C(=O)NCCN)c1)N(C(=O)Cc1ccc(Cl)cc1)C1CCN(Cc2ccccc2)CC1 (centres unmarked) [Example 3, N-(2-aminoethyl)-3′-[1-{N-(1-benzylpiperidin-4-yl)-N-(4-chlorophenylacetyl)amino}ethyl][1,1′-biphenyl]-2-carboxamide dihydrochloride]
Binding Inhibitory Ratio: 97%

CC(c1cccc(-c2ccccc2C(=O)NCCN)c1)N(C(=O)Cc1ccc2ccccc2c1)C1CCN(Cc2ccccc2)CC1 (centres unmarked) [Example 1, N-(2-aminoethyl)-3′-[1-{N-(1-benzylpiperidin-4-yl)-N-(2-naphthylacetyl)amino}ethyl][1,1′-biphenyl)-2-carboxamide dihydrochloride]
Binding Inhibitory Ratio: 96%

CC(c1cccc(-c2ccccc2C(=O)NCCN)c1)N(C(=O)Cc1ccc(Br)cc1)C1CCN(Cc2ccccc2)CC1 (centres unmarked) [Example 2, N-(2-aminoethyl) -3′-[1-{N-(1-benzylpiperidin-4-yl)-N-(4-bromophenylacetyl)amino}ethyl][1,1′-biphenyl]-2-carboxamide dihydrochloride]
Binding Inhibitory Ratio: 97%
